Key:
HEPG2 cells [1] = assay: Label-free metabolic profiling (glucose restriction / glucose reintroduction) on ChemFET sensor array, HEPG2 cells; assay type: cell-based, human
From the text: FIG. 18A through FIG. 18B are graphs of data collected during metabolic profiling studies using HEPG2 cells (ATCC-HB-8065), while FIG. 19A and FIG. 19B are graphs of data collected during metabolic profiling studies using A673 cells (ECACC 85111504). FIG. 18A through FIG. 18B are temporal response graphs of counts equivalent to protons (CEP) in microvolts (μV) versus time. As will be described in more detail herein, the pharmacological dissection of metabolic profiling can be performed to understand the contribution of oxidative metabolism and glycolytic metabolism to metabolic profiling. Accordingly, chemical agents, such as oligomycin, antimycin A, rotenone and metformin can used to understand a contribution of oxidative metabolism to cellular response in a metabolic profiling study, while chemical agents, such as 2-deoxy-D-glucose, koningic acid, fasentin, and AM2394 can used to understand a contribution of glycolytic metabolism to cellular response in a metabolic profiling study.
The chip devices used in the studies were ISFET chip devices selective for sensing hydrogen ions, and were chip devices such as chip device 1 of 1 of Table 1. Given that the analyses performed were for metabolic profiling, chip devices with microwells were selected as depicted for chip device 500B of FIG. 5C. […]
(§1) Prior to seeding the devices with cells, each chip device in open format, such as open format chip device 500 of FIG. 2, and were soaked for 30 minutes with 70% ethanol in water, then rinsed with PBS and then rinsed twice with 1.5 mL of a cell culture medium, for example, Dulbecco's Modified […] Medium (DMEM; Gibco™ catalog #11995-065), Minimal Essential Medium (MEM; Gibco™ catalog #11095-080) or McCoy's 5A modified medium (Gibco™ catalog #12330-031). […] After rinsing with the cell culture medium, the devices were ready for addition to each device of a suspension of cells at a density between 5,000 to 30,000 cells in 1 to 1.5 mL of a cell culture medium, pH 7.4. […]

HEPG2 cells [2] = details: FCCP 100 μM; ISFET chip device 2 with microwells; not all cells showed efflux
Experimental: A sensor array device of the present disclosure, such as sensor array device 500 of FIG. 2, has an open structure, thereby allowing the HEPG2 cells to be cultured on the sensor surface in ^˜1 mL of cell culture media. The device was sterilized with 70% Ethanol in water, rinsed and prepared with 100 μg/mL poly-D-lysine in phosphate buffered saline prior to adding cells to facilitate cell adhesion to a chip device surface as depicted in FIG. 5B.
For plating on the sensor array device, the HEPG2 cells were harvested from culture, resuspended at 2.5×10^5 cells per mL in complete cell culture medium (composed of Minimum Essential Medium, MEM, Thermo Fisher Scientific catalog number 11095080) plus 10% Fetal Calf Serum (FCS, Thermo Fisher Scientific Catalog number A3160401) and plated onto the sensor array device for overnight incubation in a cell culture incubator under standard conditions at 37° C. with 95% humidity and 5% carbon dioxide in room air atmosphere. […] Cells were then allowed to adhere to the prepared surface of the sensor array device and grow overnight or longer before microscopic analysis of morphology and qualitative assessment of viability. […]

A673 cells [3] = assay: Label-free metabolic profiling (glucose restriction / glucose reintroduction) on ChemFET sensor array, A673 cells; assay type: cell-based; details: 5 μM koningic acid pretreatment during glucose restriction; 5 mM glucose reintroduction; FIG. 19A/19B
From the text: FIG. 18A through FIG. 18B are graphs of data collected during metabolic profiling studies using HEPG2 cells (ATCC-HB-8065), while FIG. 19A and FIG. 19B are graphs of data collected during metabolic profiling studies using A673 cells (ECACC 85111504). FIG. 18A through FIG. 18B are temporal response graphs of counts equivalent to protons (CEP) in microvolts (μV) versus time. As will be described in more detail herein, the pharmacological dissection of metabolic profiling can be performed to understand the contribution of oxidative metabolism and glycolytic metabolism to metabolic profiling. […]
as §1

HEPG2 cells [4] = assay: Control microscopy with calcein acetoxymethyl (AM) ester live-cell indicator, HEPG2 cells; assay type: cell-based, human; details: 5 μM koningic acid treated cells, after experiment of FIG. 18B
Experimental: (§2) After completion of each experiment represented by FIG. 18A and FIG. 18B for the HEPG2 cells, and by FIG. 19A and FIG. 19B for the A673 cells, control microscopy studies using calcein acetoxymethyl (AM) ester, a known fluorescent indicator of live cells, were performed. […] These control microscopy studies confirmed that what was observed using the ChemFET-based cell analysis system to perform the studies represented by FIG. 18A through FIG. 19B for both HEPG2 and A673 cells were observed using live cells.

A673 cells [5] = assay: Control microscopy with calcein acetoxymethyl (AM) ester live-cell indicator, A673 cells; assay type: cell-based; details: 5 μM koningic acid treated cells, after experiment of FIG. 19B
Experimental: as §2

O=CC[C@@H](O)[C@H](O)[C@H](O)CO [2-deoxy-D-glucose]
averaged temporal response, counts equivalent to protons (CEP) versus time (HEPG2 cells [1]; 50 mM 2-deoxy-D-glucose introduced at 371 seconds after oligomycin, control without koningic acid, FIG. 18A): attenuated

N#CC(C#N)=NNc1ccc(OC(F)(F)F)cc1 [FCCP, carbonyl cyanide-4-(trifluoromethoxy) phenylhydrazone]
cellular response observed in electroscopic image (HEPG2 cells [2]): efflux of cellular contents

CC(C)[C@H]1CC[C@@]2(CO2)[C@H]2C(=O)OCC(C(=O)O)=C[C@H]12 [koningic acid]
averaged temporal response, counts equivalent to protons (CEP) versus time (HEPG2 cells [1]; 5 μM koningic acid pretreatment during glucose restriction, two to three hours, then glucose, oligomycin, 2-deoxy-D-glucose, FIG. 18B): no change in the averaged signal | averaged temporal response (CEP) to glucose reintroduction with and without koningic acid (A673 cells [3]): comparable to the results using HEPG2 cells | acute toxicity, calcein staining profile versus control vehicle treated cultures (HEPG2 cells [4]): no acute toxicity | acute toxicity, calcein staining profile versus control vehicle treated cultures (A673 cells [5]): no acute toxicity

CC[C@H]1/C=C/C=C/C[C@@H](C)[C@H](O)[C@@](C)(O)C(=O)[C@@H](C)[C@H](O)[C@@H](C)C(=O)[C@@H](C)[C@H](O)[C@@H](C)/C=C/C(=O)O[C@@H]2[C@H](C)[C@H](CC1)O[C@]1(CC[C@H](C)[C@H](C[C@@H](C)O)O1)[C@H]2C [oligomycin]
averaged temporal response, counts equivalent to protons (CEP) versus time (HEPG2 cells [1]; 1 μM oligomycin introduced at 295 seconds after glucose, control without koningic acid, FIG. 18A): potentiated

Reference: US20230324368A1, “Systems, Devices And Methods For Cell Analysis Using ChemFET Sensor Arrays” (Life Technologies Corporation, priority 2020, published 2023)
